Values quoted from earlier work in US20040116514A1, “Compositions for preventing human cancer and method of preventing human cancer” (priority 2002, published 2004).

System: humans
Details: β-carotene alone administered in large quantities to humans (Omenn et al., 1996)

SMILES: CC1=C(/C=C/C(C)=C/C=C/C(C)=C/C=C/C=C(C)/C=C/C=C(C)/C=C/C2=C(C)CCCC2(C)C)C(C)(C)CCC1 [β-carotene]
- incidence rate of pulmonary cancer: actually rises
